Species: Rattus norvegicus
Experiment: DrugMatrix - Regimen: Daily Repeat
Type: toxicity, organism-based, Sprague-Dawley
Design: regimen Daily Repeat, gender Male, age 6-8 weeks
Conditions: in vivo, po, route oral GAVAGE, vehicle .5 % CMC; for ABSOLUTE BASOPHIL / ABSOLUTE EOSINOPHIL / ABSOLUTE LYMPHOCYTE / ABSOLUTE MONOCYTE / ABSOLUTE SEGMENTED NEUTROPHIL / BASOPHIL / EOSINOPHIL / ERYTHROCYTE COUNT / HEMATOCRIT / HEMOGLOBIN / LEUKOCYTE COUNT / LYMPHOCYTE / MEAN CORPUSCULAR HEMOGLOBIN / MEAN CORPUSCULAR HEMOGLOBIN CONCENTRATION / MEAN CORPUSCULAR VOLUME / MONOCYTE / NEUTROPHIL / NUCLEATED RED BLOOD CELLS / PLATELET COUNT: tissue Blood; for ALANINE AMINOTRANSFERASE / ALBUMIN / ALKALINE PHOSPHATASE / ASPARTATE AMINOTRANSFERASE / BLOOD UREA NITROGEN / CARBON DIOXIDE / CHLORIDE / CHOLESTEROL / CREATINE PHOSPHOKINASE / CREATININE / GLUCOSE / LACTATE DEHYDROGENASE / LIPASE / PHOSPHORUS / POTASSIUM / SODIUM / TOTAL BILIRUBIN / TOTAL PROTEIN / URIC ACID: tissue Plasma
[1] = 0 mg/kg, 72 h, dose level Control, time 3 day
[2] = 0 mg/kg, 120 h, dose level Control, time 5 day
[3] = 200 mg/kg, 72 h, dose level Low, time 3 day

Structure (SMILES): Cc1cnc(C(=O)NCCc2ccc(S(=O)(=O)NC(=O)NC3CCCCC3)cc2)cn1 [GLIPIZIDE]
- ABSOLUTE BASOPHIL [1]: 0 CELLS/uL
- ABSOLUTE EOSINOPHIL [1]: 0 CELLS/uL
- ABSOLUTE LYMPHOCYTE [1]: 12191.17 CELLS/uL
- ABSOLUTE MONOCYTE [1]: 183.17 CELLS/uL
- ABSOLUTE SEGMENTED NEUTROPHIL [1]: 1192.33 CELLS/uL
- BASOPHIL [1]: 0%
- EOSINOPHIL [1]: 0%
- ERYTHROCYTE COUNT [1]: 5.51 x10E6/uL
- HEMATOCRIT [1]: 35.45%
- HEMOGLOBIN [1]: 13.82 G/DL
- LEUKOCYTE COUNT [1]: 13.57 x10E3/uL
- LYMPHOCYTE [1]: 89.83%
- MEAN CORPUSCULAR HEMOGLOBIN [1]: 25.1 pg
- MEAN CORPUSCULAR HEMOGLOBIN CONCENTRATION [1]: 38.98 G/DL
- MEAN CORPUSCULAR VOLUME [1]: 64.42 fL
- MONOCYTE [1]: 1.33%
- NEUTROPHIL [1]: 8.83%
- NUCLEATED RED BLOOD CELLS [1]: 0 /100WBC
- PLATELET COUNT [1]: 1118.17 x10E3/uL
- ALANINE AMINOTRANSFERASE [1]: 55 u/L
- ALBUMIN [1]: 4.15 G/DL
- ALKALINE PHOSPHATASE [1]: 449.5 u/L
- ASPARTATE AMINOTRANSFERASE [1]: 112.83 u/L
- BLOOD UREA NITROGEN [1]: 17.33 mg/dL
- CARBON DIOXIDE [1]: 29.5 mmol/L
- CHLORIDE [1]: 101 MEQ/L
- CHOLESTEROL [1]: 70 mg/dL
- CREATINE PHOSPHOKINASE [1]: 1325.83 u/L
- CREATININE [1]: 0.18 mg/dL
- GLUCOSE [1]: 171.5 mg/dL
- LACTATE DEHYDROGENASE [1]: 386 u/L
- LIPASE [1]: 10 u/L
- PHOSPHORUS [1]: 11.57 mg/dL
- POTASSIUM [1]: 6.21 MEQ/L
- SODIUM [1]: 141.65 MEQ/L
- TOTAL BILIRUBIN [1]: 0.15 mg/dL
- TOTAL PROTEIN [1]: 5.75 G/DL
- URIC ACID [1]: 1.28 mg/dL
- ABSOLUTE BASOPHIL [2]: 0 CELLS/uL
- ABSOLUTE EOSINOPHIL [2]: 138.17 CELLS/uL
- ABSOLUTE LYMPHOCYTE [2]: 13283.17 CELLS/uL
- ABSOLUTE MONOCYTE [2]: 303.83 CELLS/uL
- ABSOLUTE SEGMENTED NEUTROPHIL [2]: 1308.17 CELLS/uL
- BASOPHIL [2]: 0%
- EOSINOPHIL [2]: 1%
- ERYTHROCYTE COUNT [2]: 5.32 x10E6/uL
- HEMATOCRIT [2]: 33.8%
- HEMOGLOBIN [2]: 13.63 G/DL
- LEUKOCYTE COUNT [2]: 15.03 x10E3/uL
- LYMPHOCYTE [2]: 88.33%
- MEAN CORPUSCULAR HEMOGLOBIN [2]: 25.68 pg
- MEAN CORPUSCULAR HEMOGLOBIN CONCENTRATION [2]: 40.35 G/DL
- MEAN CORPUSCULAR VOLUME [2]: 63.67 fL
- MONOCYTE [2]: 1.83%
- NEUTROPHIL [2]: 8.83%
- NUCLEATED RED BLOOD CELLS [2]: 0 /100WBC
- PLATELET COUNT [2]: 1097.5 x10E3/uL
- ALANINE AMINOTRANSFERASE [2]: 54.5 u/L
- ALBUMIN [2]: 4.27 G/DL
- ALKALINE PHOSPHATASE [2]: 337 u/L
- ASPARTATE AMINOTRANSFERASE [2]: 94.67 u/L
- BLOOD UREA NITROGEN [2]: 17 mg/dL
- CARBON DIOXIDE [2]: 28.33 mmol/L
- CHLORIDE [2]: 101.5 MEQ/L
- CHOLESTEROL [2]: 71.33 mg/dL
- CREATINE PHOSPHOKINASE [2]: 628.17 u/L
- CREATININE [2]: 0.19 mg/dL
- GLUCOSE [2]: 177.83 mg/dL
- LACTATE DEHYDROGENASE [2]: 500.5 u/L
- LIPASE [2]: 9.5 u/L
- PHOSPHORUS [2]: 12.3 mg/dL
- POTASSIUM [2]: 5.63 MEQ/L
- SODIUM [2]: 143.03 MEQ/L
- TOTAL BILIRUBIN [2]: 0.2 mg/dL
- TOTAL PROTEIN [2]: 6.02 G/DL
- URIC ACID [2]: 1.5 mg/dL
- ABSOLUTE BASOPHIL [3]: 0 CELLS/uL
- ABSOLUTE EOSINOPHIL [3]: 38 CELLS/uL
- ABSOLUTE LYMPHOCYTE [3]: 11413.33 CELLS/uL
- ABSOLUTE MONOCYTE [3]: 0 CELLS/uL
- ABSOLUTE SEGMENTED NEUTROPHIL [3]: 882 CELLS/uL
- BASOPHIL [3]: 0%
- EOSINOPHIL [3]: 0.33%
- ERYTHROCYTE COUNT [3]: 5.65 x10E6/uL
- HEMATOCRIT [3]: 34.83%
- HEMOGLOBIN [3]: 13.93 G/DL
- LEUKOCYTE COUNT [3]: 12.33 x10E3/uL
- LYMPHOCYTE [3]: 92.67%
- MEAN CORPUSCULAR HEMOGLOBIN [3]: 24.63 pg
- MEAN CORPUSCULAR HEMOGLOBIN CONCENTRATION [3]: 40 G/DL
- MEAN CORPUSCULAR VOLUME [3]: 61.63 fL
- MONOCYTE [3]: 0%
- NEUTROPHIL [3]: 7%
- NUCLEATED RED BLOOD CELLS [3]: 0 /100WBC
- PLATELET COUNT [3]: 1245 x10E3/uL
- ALANINE AMINOTRANSFERASE [3]: 51.33 u/L
- ALBUMIN [3]: 4.23 G/DL
- ALKALINE PHOSPHATASE [3]: 334.33 u/L
- ASPARTATE AMINOTRANSFERASE [3]: 84.33 u/L
- BLOOD UREA NITROGEN [3]: 15.33 mg/dL
- CARBON DIOXIDE [3]: 27.33 mmol/L
- CHLORIDE [3]: 103.33 MEQ/L
- CHOLESTEROL [3]: 74.33 mg/dL
- CREATINE PHOSPHOKINASE [3]: 335 u/L
- CREATININE [3]: 0.13 mg/dL
- GLUCOSE [3]: 133.67 mg/dL
- LACTATE DEHYDROGENASE [3]: 97.33 u/L
- LIPASE [3]: 10.33 u/L
- PHOSPHORUS [3]: 11.7 mg/dL
- POTASSIUM [3]: 5.79 MEQ/L
- SODIUM [3]: 143.47 MEQ/L
- TOTAL BILIRUBIN [3]: 0.13 mg/dL
- TOTAL PROTEIN [3]: 5.77 G/DL
- URIC ACID [3]: 1.43 mg/dL

Source: ChEMBL document CHEMBL3885881, “DrugMatrix”
